Test results: patent publication US5981517A, “Androstene derivatives” (priority 1997, dated 1999)

Columns and labels:
physchem = assay type: physicochemical
Description: (§1) A Whatman C-18 column (4.6 mm×108 mm) was connected to a Spectra-Physics component system consisting of a SP 8810 precision isocratic pump, Rheodyne 7125 injector (20 μL injection volume), SP 8450 UV/VIS variable wavelength detector (230 nm), and SP 4290 integrator. The system was operated at ambient temperature. The mobile phase consisted of acetonitrile, acetic acid and water (60:0.1:40). At a flow rate of 1.0 mL/minute, the retention times for the test compounds were 4.74 minutes for Compound A, 5.84 minutes for Compound B, 6.93 minutes for Compound C, and 5.72 minutes for Compound D.
(§2) HPLC peak area and peak height were used as a measure of the concentration of the test compounds and plotted against time to evaluate the disappearance rates of the compounds. The stability was determined by measuring the pseudo-first order rate constant (kobs in min^-1) or half-life (t1/2 in min) of disappearance of the test compound in buffer. […].
The stabilities of test compounds A, B, C, and D, were tested in buffer solutions in the pH range of 4.0 to 9.0. A 0.1 mL portion of each compound at a concentration of 1 mM was mixed with 10 mL phosphate buffer (made by combining 0.05 M of NaH2 PO4 and 0.05 M of Na2 HPO4 with 0.05 M of NaCl) to give a final concentration of 0.01 mM. The mixtures were incubated at 37° C., and samples were taken and injected in the HPLC system at appropriate time intervals. pH profiles of each test compound are shown in TABLE III below. […]

Stability in rat blood = assay type: in vitro ADME; settings: rat blood, 0.1 mM, 37° C.; read-out: Half-life (t1/2), Blood
Description: as §1, §2
(§3) A 0.2 mL aliquot of stock solution (1 mM) of each of the test compounds A, B, C, and D, was added to 2 mL of each biological media (whole heparinized rat blood, 20% rat liver homogenate, and 6-volume diluted lung homogenate in isotonic buffer of pH 7.40 made by combining 0.05 M of Na2 HPO4 and 0.05 M of NaH2 PO4 with 0.05 M of NaCl), which was kept in a 37° C. water bath, to obtain a final concentration of 0.1 mM in each biological medium. Samples of 0.1 mL were taken at appropriate time intervals for 2 hours (at 0, 3, 5, 10, 20, 40, 60, 90 and 120 minutes) and mixed with 0.2 mL of acetonitrile containing 5% DMSO. Each mixture was centrifuged and the supernatant was injected in the HPLC.

[1] = Stability in liver homogenate; assay type: in vitro ADME, rat; settings: 20% rat liver homogenate, 0.1 mM, 37° C.; read-out: Half-life (t1/2), Liver
Description: as §1, §2, §3

[2] = Stability in lung homogenate; assay type: in vitro ADME; settings: rat; 6-volume diluted lung homogenate, 0.1 mM, 37° C.; read-out: Half-life (t1/2), Lung
Description: as §1, §2, §3

[3] = Stability in human plasma; assay type: in vitro ADME; settings: human plasma, 100 μM, 37° C.
Description: (§4) A Waters NOVA-PAK phenyl column was connected to a Spectra-Physics component system consisting of a SP 8810 precision isocratic pump, a Rheodyne 7125 injector (injection volume 20 μL), an SP 8450 UV/VIS variable wavelength detector (operated at 254 nm) and a SP 4270 integrator. […]. The retention times of compound of the invention J and its metabolities L and M were 8.64, 2.70 and 2.45 minutes, respectively. The retention times of compound of the invention I and its metabolites N and 0 were 5.84, 2.70 and 1.81 minutes, respectively. The retention time of cortienic acid was 1.00 minute.
(§5) Freshly collected human or rat plasma was used. An aliquot of 10 mM test compound in ethanol solution was added to prewarmed (37° C.) plasma to yield a final concentration of 100 μM. At appropriate time intervals, samples (0.1 mL) were removed and mixed with 0.2 mL of 5% dimethylsulfoxide/acetonitrile solution. Mixtures were centrifuged and supernatants were analyzed by HPLC. The pseudo-first order rate constant of the disappearance of compound in the biological media was determined by linear regression analysis from the plot of log peak area and peak height versus time.
(§6) Stability was evaluated by the pseudo first-order rate constant (k, hr^-1) and half-life (t1/2, hr) of the disappearance of the test compound in the media.

Stability in rat plasma = assay type: in vitro ADME; settings: rat plasma, 100 μM, 37° C.
Description: as §4, §5, §6

[4] = system: forearm of a human volunteer; test: Human vasoconstriction test; assay type: in vivo; set-up: key: 0 = normal skin, 4 = very intense pallor; settings: 10 mM

CCOC(=O)[C@@]1(OC(=O)C(Cl)Cl)CC[C@H]2[C@@H]3CCC4=CC(=O)C=C[C@]4(C)[C@H]3[C@@H](O)C[C@@]21C [Compound B, Ethyl 17α-dichloroacetoxy-11β-hydroxyandrosta-1,4-dien-3-one-17β-carboxylate]
half-life (physchem; aqueous phosphate buffer, pH 4.5): > 48 h | half-life (physchem; aqueous phosphate buffer, pH 6.56): 16.7 h | half-life (physchem; aqueous phosphate buffer, pH 7.4): 5.08 h | half-life (physchem; aqueous phosphate buffer, pH 8.08): 0.867 h | half-life (physchem; aqueous phosphate buffer, pH 9): 0.144 h | half-life (physchem; buffer, pH 7.4): 5.08 h | half-life at 100 µM (Stability in rat blood): 1.29 h | half-life at 100 µM [1]: 0.313 h | half-life at 100 µM [2]: 2.29 h | k (pseudo first-order rate constant) [3]: 0.138 h⁻¹ | half-life at 100 µM ([3]; read-out: t1/2 (converted)): 5.03 h | k (pseudo first-order rate constant) (Stability in rat plasma): 0.136 h⁻¹ | half-life at 100 µM (Stability in rat plasma; read-out: t1/2 (converted)): 5.08 h | Vasoconstriction activity ([4]; 1 hour after patch removal): 3 | Vasoconstriction activity ([4]; 8 hours after patch removal): 4 | Vasoconstriction activity ([4]; 17 hours after patch removal): 4 | Vasoconstriction activity ([4]; 24 hours after patch removal): 4
